This experiment deals with L1210 leukemia ip in BDF1 mice, survival T/C. Briefly: NCI In Vivo Anticancer Drug Screen. Data for tumor model L1210 Leukemia (intraperitoneal) in B6D2F1 (BDF1) mice. Particulars: endpoint: mean survival time, higher = longer survival. In a few lines:
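In this screen, tumor-bearing mice given compound are compared to those given vehicle, and their survival values are reported as a treated-to-control quotient.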

Setting [1] is: dose: 100.0 mg/kg/injection, schedule: Q01DX009 (ip), vehicle: saline.
[2] abbreviates: dose: 100.0 mg/kg/injection, schedule: Q01DX009 (ip), vehicle: saline with Tween-80.
The mark [3] stands for this setting: dose: 100.0 mg/kg/injection, schedule: Q04DX003 (ip), vehicle: saline with Tween-80.
Setting [4] is: dose: 200.0 mg/kg/injection, schedule: Q01DX009 (ip), vehicle: saline with Tween-80.
The mark [5] stands for this setting: dose: 200.0 mg/kg/injection, schedule: Q04DX003 (ip), vehicle: saline with Tween-80.
Setting [6] is: dose: 400.0 mg/kg/injection, schedule: Q01DX009 (ip), vehicle: saline with Tween-80.
The mark [7] stands for this setting: dose: 400.0 mg/kg/injection, schedule: Q04DX003 (ip), vehicle: saline with Tween-80.
[8] abbreviates: dose: 100.0 mg/kg/injection, schedule: Q01DX001 (ip), vehicle: saline.
Where [9] appears, read: dose: 200.0 mg/kg/injection, schedule: Q01DX001 (ip), vehicle: saline.
[10] abbreviates: dose: 400.0 mg/kg/injection, schedule: Q01DX001 (ip), vehicle: saline.

Several values for one entry are separate records, joined by “and”; a condition that tells them apart may be missing. Equal values may be shown once. Toxic doses and inconclusive results are not listed.

As to `O=c1[nH]cnc2c1ncn2Cc1ccccc1`, the T/C was 104 % of control (dose: 100.0 mg/kg/injection, schedule: Q01DX001 (ip), vehicle: saline with Tween-80); 102 % of control (dose: 200.0 mg/kg/injection, schedule: Q01DX001 (ip), vehicle: saline with Tween-80); 96 % of control (dose: 400.0 mg/kg/injection, schedule: Q01DX001 (ip), vehicle: saline with Tween-80).

For the compound `NC(=S)N/N=C\c1ccccn1`, the T/C is 123 % of control (dose: 6.25 mg/kg/injection, schedule: Q01DX009 (ip), vehicle: saline with Tween-80); 103 % of control (dose: 6.25 mg/kg/injection, schedule: Q04DX003 (ip), vehicle: saline with Tween-80); 160 % of control (dose: 8.0 mg/kg/injection, schedule: Q01DX009 (ip), vehicle: saline with Tween-80); 165 % of control (dose: 12.0 mg/kg/injection, schedule: Q01DX009 (ip), vehicle: saline with Tween-80); 102 % of control (dose: 12.5 mg/kg/injection, schedule: Q04DX003 (ip), vehicle: saline with Tween-80); 98 % of control (dose: 25.0 mg/kg/injection, schedule: Q04DX003 (ip), vehicle: saline with Tween-80).

As for `CC(=O)NCc1ccc(N)cc1`, the T/C is, setting by setting: (dose: 12.5 mg/kg/injection, schedule: Q01DX009 (ip), vehicle: water) 114 % of control; (dose: 25.0 mg/kg/injection, schedule: Q01DX009 (ip), vehicle: water) 112 % of control; (dose: 50.0 mg/kg/injection, schedule: Q01DX009 (ip), vehicle: water) 114 % of control; (dose: 100.0 mg/kg/injection, schedule: Q01DX009 (ip), vehicle: water) 120 % of control; (dose: 200.0 mg/kg/injection, schedule: Q01DX009 (ip), vehicle: water) 116 % of control.

Regarding `COc1ccc(/C=C/c2ccc3ccccc3[n+]2C)cc1`, the T/C by setting is: (dose: 12.5 mg/kg/injection, schedule: Q01DX009 (ip), vehicle: saline with Tween-80) 94 % of control; (dose: 25.0 mg/kg/injection, schedule: Q01DX009 (ip), vehicle: saline with Tween-80) 115 % of control; (dose: 25.0 mg/kg/injection, schedule: Q04DX003 (ip), vehicle: Klucel (hydroxypropylcellulose) (HPC)) 101 % of control; (dose: 50.0 mg/kg/injection, schedule: Q01DX009 (ip), vehicle: saline with Tween-80) 115 % of control; (dose: 50.0 mg/kg/injection, schedule: Q04DX003 (ip), vehicle: Klucel (hydroxypropylcellulose) (HPC)) 106 % of control.

With `OCCCN1CCC2(CC1)SSC1(CCN(CCCO)CC1)S2`, the T/C by setting is: (dose: 50.0 mg/kg/injection, schedule: Q01DX009 (ip), vehicle: saline) 95 % of control; under setting [1], 101 % of control; (dose: 100.0 mg/kg/injection, schedule: Q04DX003 (ip), vehicle: saline) 95 % of control; (dose: 200.0 mg/kg/injection, schedule: Q04DX003 (ip), vehicle: saline) 98 % of control.

Take `CCCCCCCCCCCCCCCCCCNC(=O)Nc1cccc2ccccc12`: the T/C is 87 % of control (dose: 100.0 mg/kg/injection, schedule: Q01DX009 (ip), vehicle: carboxymethylcellulose (CMC)); 101 % of control (dose: 100.0 mg/kg/injection, schedule: Q04DX002 (ip), vehicle: Klucel (hydroxypropylcellulose) (HPC)); 87 % of control (dose: 100.0 mg/kg/injection, schedule: Q04DX002 (ip), vehicle: carboxymethylcellulose (CMC)); 106 % of control (dose: 100.0 mg/kg/injection, schedule: Q04DX003 (ip), vehicle: carboxymethylcellulose (CMC)); 87 % of control (dose: 200.0 mg/kg/injection, schedule: Q01DX009 (ip), vehicle: carboxymethylcellulose (CMC)); 101 % of control (dose: 200.0 mg/kg/injection, schedule: Q04DX002 (ip), vehicle: Klucel (hydroxypropylcellulose) (HPC)). In addition, the T/C was 93 % of control and 95 % of control (dose: 200.0 mg/kg/injection, schedule: Q04DX002 (ip), vehicle: carboxymethylcellulose (CMC)); 96 % of control (dose: 200.0 mg/kg/injection, schedule: Q04DX003 (ip), vehicle: carboxymethylcellulose (CMC)); 94 % of control and 97 % of control (dose: 400.0 mg/kg/injection, schedule: Q01DX009 (ip), vehicle: carboxymethylcellulose (CMC)); 93 % of control and 88 % of control (dose: 400.0 mg/kg/injection, schedule: Q04DX002 (ip), vehicle: carboxymethylcellulose (CMC)); 90 % of control (dose: 400.0 mg/kg/injection, schedule: Q04DX003 (ip), vehicle: carboxymethylcellulose (CMC)).

Consider `COC(=O)c1cc([N+](=O)[O-])c(Cl)c([N+](=O)[O-])c1`, for which the T/C is 98 % of control (dose: 12.5 mg/kg/injection, schedule: Q01DX009 (ip), vehicle: Klucel (hydroxypropylcellulose) (HPC)); 87 % of control (dose: 25.0 mg/kg/injection, schedule: Q01DX009 (ip), vehicle: Klucel (hydroxypropylcellulose) (HPC)); 89 % of control (dose: 100.0 mg/kg/injection, schedule: Q04DX003 (ip), vehicle: Klucel (hydroxypropylcellulose) (HPC)).

Consider `CCCC1=NNC(=O)C1(Br)Br`, for which the T/C runs as follows: (dose: 10.0 mg/kg/injection, schedule: Q01DX001 (ip), vehicle: carboxymethylcellulose (CMC)) 97 % of control; (dose: 20.0 mg/kg/injection, schedule: Q01DX001 (ip), vehicle: carboxymethylcellulose (CMC)) 91 % of control; (dose: 40.0 mg/kg/injection, schedule: Q01DX001 (ip), vehicle: carboxymethylcellulose (CMC)) 92 % of control; (dose: 80.0 mg/kg/injection, schedule: Q01DX001 (ip), vehicle: carboxymethylcellulose (CMC)) 97 % of control.

For the compound `CCOC(=O)C12CC=CC(CCC1)C2=O` (stereo unspecified) (tested in a mixture with another compound), the T/C is, setting by setting: under setting [2], 112 % of control; under setting [3], 103 % of control; under setting [4], 101 % of control; under setting [5], 102 % of control; under setting [6], 101 % of control; under setting [7], 105 % of control.

Consider `O=C(O)/C=C/c1cc(Br)sc1Br`, for which the T/C under setting [8] was 96 % of control, the T/C under setting [9] was 107 % of control and the T/C under setting [10] was 88 % of control.

In the case of `COc1ccccc1CN1CCCN(Cc2ccccc2OC)C1c1ccc(N(CCCl)CCCl)cc1C`, the T/C by setting is: under setting [8], 88 % of control; under setting [1], 98 % of control; under setting [9], 88 % of control; (dose: 200.0 mg/kg/injection, schedule: Q01DX009 (ip), vehicle: saline) 95 % of control; under setting [10], 87 % of control.

For `O/N=C(\Cl)c1ccc(/C(Cl)=N\O)cc1`, the T/C by setting is: (dose: 5.0 mg/kg/injection, schedule: Q01DX001 (ip), vehicle: saline) 111 % of control; (dose: 10.0 mg/kg/injection, schedule: Q01DX001 (ip), vehicle: saline) 105 % of control; (dose: 20.0 mg/kg/injection, schedule: Q01DX001 (ip), vehicle: saline) 100 % of control.

For `CC(C)/C(=N\Nc1ccc([N+](=O)[O-])cc1[N+](=O)[O-])c1ccccc1`, the T/C under setting [3] was 96 % of control, the T/C under setting [5] was 106 % of control and the T/C under setting [7] was 100 % of control.

With `Cc1ccc(CNc2ccc(I)cc2)cc1`, the T/C is, setting by setting: under setting [2], 96 % of control; under setting [4], 96 % of control; under setting [6], 98 % of control.

For `O=C(Nc1ccccc1C(F)(F)F)N(CCO)C1CCCCC1`, the T/C (dose: 100.0 mg/kg/injection, schedule: Q01DX009 (ip), vehicle: Klucel (hydroxypropylcellulose) (HPC)) was 100 % of control; the T/C (dose: 200.0 mg/kg/injection, schedule: Q01DX009 (ip), vehicle: Klucel (hydroxypropylcellulose) (HPC)) was 103 % of control; the T/C (dose: 400.0 mg/kg/injection, schedule: Q01DX009 (ip), vehicle: Klucel (hydroxypropylcellulose) (HPC)) was 101 % of control.

For `C=C1[C@@H](C)[C@H]2[C@H](Cc3ccccc3)NC(=O)[C@]23OC(=O)/C=C/[C@H](O)CCC[C@@H](C)C/C=C/[C@H]3[C@@H]1O`, the T/C is 112 % of control (dose: 4.0 mg/kg/injection, schedule: Q04DX002 (ip), vehicle: saline); 98 % of control (dose: 8.0 mg/kg/injection, schedule: Q04DX002 (ip), vehicle: saline); 109 % of control (dose: 16.0 mg/kg/injection, schedule: Q04DX002 (ip), vehicle: saline); 91 % of control (dose: 32.0 mg/kg/injection, schedule: Q04DX002 (ip), vehicle: saline).

Source of the values: PubChem BioAssay AID248 (DTP/NCI, 2004).
